These results are taken from patent publication US7067491B2, “Heterocyclic compounds having elastase-inhibiting activity and intermediates thereof” (Dainippon Pharmaceutical Co., Ltd., priority 2002, dated 2006).

SMILES strings stand for the structures.

The experiment concerns the target T1, human neutrophil elastase (Homo sapiens, UniProt P08246).
T1 construct: purchased Elastine Product Co., Inc
T1 sequence (P08246 30-267): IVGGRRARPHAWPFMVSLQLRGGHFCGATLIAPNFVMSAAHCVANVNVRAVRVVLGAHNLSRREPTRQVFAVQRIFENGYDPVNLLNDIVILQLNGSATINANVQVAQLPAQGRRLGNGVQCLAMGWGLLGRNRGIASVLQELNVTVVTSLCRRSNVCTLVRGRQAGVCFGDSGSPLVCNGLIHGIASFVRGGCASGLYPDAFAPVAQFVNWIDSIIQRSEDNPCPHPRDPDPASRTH
The experiment in a line: Inhibitory activity on human neutrophil elastase (HNE) in vitro. It counts as biochemical. Particulars: human neutrophil elastase 0.2 U/ml, substrate MeO-Suc-Ala-Ala-Pro-Val-pNA 0.5 mM, 37° C., pH 7.5. As for the experimental part:
Experiment 1: Inhibitory Activity on Human Neutrophil Elastase (HNE)
The inhibitory activity of the compound of the present invention in vitro on human neutrophil elastase was examined by this experiment.
To 100 mM of HEPES {[N-(2-hydroxyethyl)piperazine-N′-(2-ethanesulfonic acid)], pH 7.5}buffer solution containing 1M NaCl and 0.001% Brij-35 (polyoxyethylene lauryl ether) were added human neutrophil elastase (final concentration: 0.2 U/ml, Elastine Product Co., Inc.) and the compound of the present invention (dissolved in 10% dimethyl sulfoxide; final concentration: 10^−10˜3×10^−3 M). The mixture was pre-incubated for 3 minutes at 37° C. Thereto was added MeO-Suc-Ala-Ala-Pro-Val-pNA (methoxysuccinyl-alanyl-alanyl-prolyl-valyl-p-nitroanilide (Sigma Chemical Co.)) as a substrate to give the final concentration of 0.5 mM, and the reaction was initiated. Under this condition, the producing rate of the reaction product, p-nitroanilide (pNA) at 37° C. was estimated by measuring the absorbance at 404 nm for 3 minutes.
The inhibitory activity of the compound of the present invention against human neutrophil elastase (HNE) is calculated according to the following formula.
The concentration of the compound of the present invention to be required to achieve 50% HNE inhibition (i.e., IC50) was calculated based on the concentration-inhibitory rate curve of the compound of the present invention.
As a comparative compound, N-[(1S)-2-((2S)-2-{N-[(1S)-3,3,3-trifluoro-1-(methylethyl)-2-oxopropyl]carbamoyl}pyrrolidinyl)-1-(methylethyl)-2-oxoethyl](imidazol-4-yl)carboxamide was used, and the same assay was carried out. The planar structure of this compound was the same as one of compound (22) disclosed in J. Med. Chem., 1997, 40, 1876–1885.
`Cc1ccc(-n2ncc(C(=O)N[C@H](C(=O)N3CCC[C@H]3C(=O)N[C@H](C(=O)C(F)(F)F)C(C)C)C(C)C)c2C)cc1` [Example 39, N-[(1S)-2-((2S)-2-{N-[(1S)-3,3,3-trifluoro-1-(methylethyl)-2-oxopropyl]carbamoyl}pyrrolidinyl)-1-(methylethyl)-2-oxoethyl]-[5-methyl-1-(4-methylphenyl)pyrazol-4-yl]carboxamide] displayed a half-maximal inhibitory concentration (IC50) of 0.01 µM.
For `CC(C)[C@H](NC(=O)c1cc(-c2ccccc2)no1)C(=O)N1CCC[C@H]1C(=O)N[C@H](C(=O)C(F)(F)F)C(C)C` [Example 24, N-[(1S)-2-((2S)-2-{N-[(1S)-3,3,3-trifluoro-1-(methylethyl)-2-oxopropyl]carbamoyl}pyrrolidinyl)-1-(methylethyl)-2-oxoethyl]-(3-phenylisoxazol-5-yl)carboxamide] the value was 0.015 µM.
For `Cc1nn(-c2ccccc2)c(C)c1C(=O)N[C@H](C(=O)N1CCC[C@H]1C(=O)N[C@H](C(=O)C(F)(F)F)C(C)C)C(C)C` [Example 34, N-[(1S)-2-((2S)-2-{N-[(1S)-3,3,3-trifluoro-1-(methylethyl)-2-oxopropyl]carbamoyl}pyrrolidinyl)-1-(methylethyl)-2-oxoethyl]-(3,5-dimethyl-1-phenylpyrazol-4-yl)carboxamide], the IC50 is 0.0098 µM.
In turn, `Cc1c(C(=O)N[C@H](C(=O)N2CCC[C@H]2C(=O)N[C@H](C(=O)C(F)(F)F)C(C)C)C(C)C)cnn1-c1cccc(F)c1` [Example 46, N-[(1S)-2-((2S)-2-{N-[(1S)-3,3,3-trifluoro-1-(methylethyl)-2-oxopropyl]carbamoyl}pyrrolidinyl)-1-(methylethyl)-2-oxoethyl]-[1-(3-fluorophenyl)-5-methylpyrazol-4-yl]carboxamide] had an IC50 of 0.0081 µM.
`CC(C)[C@H](NC(=O)c1ccc2c(c1)nnn2C(C)C)C(=O)N1CCC[C@H]1C(=O)N[C@H](C(=O)C(F)(F)F)C(C)C` [Example 13, N-[(1S)-2-((2S)-2-{N-[(1S)-3,3,3-trifluoro-1-(methylethyl)-2-oxopropyl]carbamoyl}pyrrolidinyl)-1-(methylethyl)-2-oxoethyl]-[1-(methylethyl)benzotriazol-5-yl]carboxamide]: half-maximal inhibition (IC50) was put at 0.0063 µM.
`CC(C)[C@H](NC(=O)c1cc(C(C)(C)C)no1)C(=O)N1CCC[C@H]1C(=O)N[C@H](C(=O)C(F)(F)F)C(C)C` [Example 23, N-[(1S)-2-((2S)-2-{N-[(1S)-3,3,3-trifluoro-1-(methylethyl)-2-oxopropyl]carbamoyl}pyrrolidinyl)-1-(methylethyl)-2-oxoethyl]-(3-tert-butylisoxazol-5-yl)carboxamide]: the IC50 came to 0.015 µM.
Compound `CC(C)[C@H](NC(=O)c1ccc2snnc2c1)C(=O)N1CCC[C@H]1C(=O)N[C@H](C(=O)C(F)(F)F)C(C)C` [Example 14, N-[(1S)-2-((2S)-2-{N-[(1S)-3,3,3-trifluoro-1-(methylethyl)-2-oxopropyl]carbamoyl}pyrrolidinyl)-1-(methylethyl)-2-oxoethyl](benzo[d]1,2,3-thiadiazol-5-yl)carboxamide] had an IC50 of 0.012 µM.
As for `Cc1nsc(C)c1C(=O)N[C@H](C(=O)N1CCC[C@H]1C(=O)N[C@H](C(=O)C(F)(F)F)C(C)C)C(C)C` [Example 5, N-[(1S)-2-((2S)-2-{N-[(1S)-3,3,3-trifluoro-1-(methylethyl)-2-oxopropyl]carbamoyl}pyrrolidinyl)-1-(methylethyl)-2-oxoethyl]-(3,5-dimethylisothiazol-4-yl)carboxamide], inhibition was half-maximal at 0.022 µM (IC50). This IC50 lies about 1.8-fold higher than the previous one.
Turning to `Cc1c(C(=O)N[C@H](C(=O)N2CCC[C@H]2C(=O)N[C@H](C(=O)C(F)(F)F)C(C)C)C(C)C)cnn1C(C)(C)C` [Example 32, N-[(1S)-2-((2S)-2-{N-[(1S)-3,3,3-trifluoro-1-(methylethyl)-2-oxopropyl]carbamoyl}pyrrolidinyl)-1-(methylethyl)-2-oxoethyl]-(1-tert-butyl-5-methylpyrazol-4-yl)carboxamide], the IC50 amounted to 0.0085 µM.
`Cc1nocc1C(=O)N[C@H](C(=O)N1CCC[C@H]1C(=O)N[C@H](C(=O)C(F)(F)F)C(C)C)C(C)C` [Example 21, N-[(1S)-2-((2S)-2-{N-[(1S)-3,3,3-trifluoro-1-(methylethyl)-2-oxopropyl]carbamoyl}pyrrolidinyl)-1-(methylethyl)-2-oxoethyl]-(3-methylisoxazol-4-yl)carboxamide] gave an IC50 of 0.011 µM.
Under `CC(C)[C@H](NC(=O)c1cc(-c2ccccc2)on1)C(=O)N1CCC[C@H]1C(=O)N[C@H](C(=O)C(F)(F)F)C(C)C` [Example 9, N-[(1S)-2-((2S)-2-(N-[(1S)-3,3,3-trifluoro-1-(methylethyl)-2-oxopropyl]carbamoyl}pyrrolidinyl)-1-(methylethyl)-2-oxoethyl]-(5-phenylisoxazol-3-yl)carboxamide] stands 0.0092 µM; under `CC(C)[C@H](NC(=O)c1cnn(-c2ccccc2)c1)C(=O)N1CCC[C@H]1C(=O)N[C@H](C(=O)C(F)(F)F)C(C)C` [Example 33, N-[(1S)-2-((2S)-2-{N-[(1S)-3,3,3-trifluoro-1-(methylethyl)-2-oxopropyl]carbamoyl}pyrrolidinyl)-1-(methylethyl)-2-oxoethyl]-(1-phenylpyrazol-4-yl)carboxamide], 0.012 µM; under `Cc1c(C(=O)N[C@H](C(=O)N2CCC[C@H]2C(=O)N[C@H](C(=O)C(F)(F)F)C(C)C)C(C)C)cnn1-c1ccc(F)cc1` [Example 37, N-[(1S)-2-((2S)-2-{N-[(1S)-3,3,3-trifluoro-1-(methylethyl)-2-oxopropyl]carbamoyl}pyrrolidinyl)-1-(methylethyl)-2-oxoethyl]-[1-(4-fluorophenyl)-5-methylpyrazol-4-yl]carboxamide], 0.0091 µM.
Compound `Cc1ccc2onc(C(=O)N[C@H](C(=O)N3CCC[C@H]3C(=O)N[C@H](C(=O)C(F)(F)F)C(C)C)C(C)C)c2c1` [Example 18, N-[(1S)-2-((2S)-2-{N-[(1S)-3,3,3-trifluoro-1-(methylethyl)-2-oxopropyl]carbamoyl}pyrrolidinyl)-1-(methylethyl)-2-oxoethyl]-(5-methylbenzo[d]isoxazol-3-yl)carboxamide] returned a 50% inhibitory concentration (IC50) of 0.012 µM.
